The conditions of the data set: Liquid, Ebulliometric method (Recirculating still).

± gives the expanded uncertainty stated by the source.

This is an account of results in the NIST ThermoML archive (doi:10.1021/je7001144).

As to `FC(F)=C(F)Cl` [1-chloro-1,2,2-trifluroethene], the “vapor or sublimation pressure” value by setting is: (267.67 K) 248 ± 1 kPa; (272.54 K) 294.4 ± 1.2 kPa; (277.45 K) 347.8 ± 1.4 kPa; (282.62 K) 408.1 ± 1.6 kPa.
The corresponding values for `C=COC(F)(F)F` [perfluoromethyl vinyl ether] are 222.4 ± 0.9 kPa, 264.7 ± 1.1 kPa, 313.2 ± 1.3 kPa and 367.3 ± 1.5 kPa.
